System: H9P33, H9P44 and H9P48 cells
Assay: Microarray analysis of definitive endoderm on MEFs vs MATRIGEL +/- Wnt-3A (Table VI)
Conditions: DE treatment in low serum, on MATRIGEL
Method: Controls for each group included cells plated on […]-coated dishes and cultured in MEF-conditioned medium or cells plated on MEFs and cultured in ES medium. All groups contained three biological replicates and each biological replicate was repeated on two separate gene chips.
Sample preparation, hybridization, and image analysis were performed according to the Affymetrix Human Genome U133 Plus 2.0 Array. Following normalization and a log transformation, data analysis was performed using OmniViz® software (MA) and […] (VizXLabs, WA). Significant differences in gene expression between the samples were evaluated using analysis of variance and an F-test with adjusted P-value (Benjamini and Hochberg correction) of ≤0.05. Only genes with a present call in at least one group were included in the analysis.

For “Activin A: a member of the TGFβ superfamily; growth factor (R&D Systems) used to differentiate human embryonic stem cells”, the “mean normalized intensity (log format), 6-phosphofructo-2-kinasefructose-2,6-biphosphatase 4” value was −0.2429, the “mean normalized intensity (log format), Cluster Incl. AB028021: Homo sapiens HNF-3beta mRNA for hepatocyte nuclear factor-3 beta” value was −1.5339 and the “mean normalized intensity (log format), ESTs” value was −3.574. The “mean normalized intensity (log format), ESTs, Highly similar to IHH_HUMAN INDIAN HEDGEHOG PROTEIN PRECURSOR (H. sapiens)” value was −0.654, the “mean normalized intensity (log format), ESTs, Moderately similar to JE0284 Mm-1 cell derived transplantability-associated protein 1b (H. sapiens)” value was −2.377 and the “mean normalized intensity (log format), ESTs, Weakly similar to FCE2 MOUSE LOW AFFINITY IMMUNOGLOBULIN EPSILON FC RECEPTOR (M. musculus)” value was 0.4942. The “mean normalized intensity (log format), ESTs, Weakly similar to the 331st table hypothetical protein KIAA0555 (H. sapiens)” value was −1.574, the “mean normalized intensity (log format), G protein-coupled receptor” value was 1.507 and the “mean normalized intensity (log format), G protein-coupled receptor 49” value was 0.2655. For the same substance, the “mean normalized intensity (log format), Homo sapiens HNF-3beta mRNA for hepatocyte nuclear factor-3 beta” value was −2.718, the “mean normalized intensity (log format), Homo sapiens KIAA0878 protein (KIAA0878), mRNA” value was 2.0265 and the “mean normalized intensity (log format), Homo sapiens Kell blood group (KEL), mRNA” value was −2.205. For the same substance, the “mean normalized intensity (log format), Homo sapiens MLL septin-like fusion (MSF), mRNA” value was −3.292, the “mean normalized intensity (log format), Homo sapiens Mix-like homeobox protein 1 (MILD1) mRNA” value was −1.546 and the “mean normalized intensity (log format), Homo sapiens Rho GTPase activating protein 6 (ARHGAP6), transcript variant 2, mRNA” value was −1.104. For the same substance, the “mean normalized intensity (log format), Homo sapiens TBX3-iso protein (TBX3-iso), mRNA” value was −2.346, the “mean normalized intensity (log format), Homo sapiens angiopoietin 2 (ANGPT2), mRNA” value was −2.93 and the “mean normalized intensity (log format), Homo sapiens ankyrin-like with transmembrane domains 1 (ANKTM1), mRNA” value was −1.109. For the same substance, the “mean normalized intensity (log format), Homo sapiens apolipoprotein A-I (APOA1), mRNA” value was −1.471, the “mean normalized intensity (log format), Homo sapiens apolipoprotein A-II (APOA2), mRNA” value was −1.033 and the “mean normalized intensity (log format), Homo sapiens arylsulfatase E (chondrodysplasia punctata 1) (ARSE), mRNA” value was 0.283. For the same substance, the “mean normalized intensity (log format), Homo sapiens atrophin-1 interacting protein 1; activin receptor interacting protein 1 (KIAA0705), mRNA” value was −4.308, the “mean normalized intensity (log format), Homo sapiens beta-site APP cleaving enzyme (BACE) mRNA” value was −2.0354 and the “mean normalized intensity (log format), Homo sapiens cDNA FLJ11550 fis, clone HEMBA1002970” value was −1.222. The “mean normalized intensity (log format), Homo sapiens cDNA FLJ12993 fis, clone NT2RP3000197” value was 0.1473, the “mean normalized intensity (log format), Homo sapiens cDNA FLJ13221 fis, clone NT2RP4002075” value was 0.3557 and the “mean normalized intensity (log format), Homo sapiens cardiac ventricular troponin C mRNA” value was −0.5497. For the same substance, the “mean normalized intensity (log format), Homo sapiens cartilage linking protein 1 (CRTL1), mRNA” value was −1.315, the “mean normalized intensity (log format), Homo sapiens cell adhesion molecule with homology to L1CAM (close homologue of L1) (CHL1), mRNA” value was −0.5412 and the “mean normalized intensity (log format), Homo sapiens chromosome 19, cosmid R31181” value was −0.2589. The “mean normalized intensity (log format), Homo sapiens clone 23736 mRNA sequence” value was −0.04718, the “mean normalized intensity (log format), Homo sapiens cryptic mRNA, complete cds” value was 0.1049 and the “mean normalized intensity (log format), Homo sapiens cystatin S (CST4), mRNA” value was 0.9245. The “mean normalized intensity (log format), Homo sapiens cystatin SA (CST2), mRNA” value was −0.1022, the “mean normalized intensity (log format), Homo sapiens cystatin SN (CST1), mRNA” value was 0.07293 and the “mean normalized intensity (log format), Homo sapiens cytidine deaminase (CDA), mRNA” value was −3.891. For the same substance, the “mean normalized intensity (log format), Homo sapiens dual specificity phosphatase 4 (DUSP4), mRNA” value was 0.9539, the “mean normalized intensity (log format), Homo sapiens fibroblast growth factor 8 (androgen-induced) (FGF8), mRNA” value was −4.328 and the “mean normalized intensity (log format), Homo sapiens fibroblast growth factor 17 (FGF17), mRNA” value was −0.8946. For the same substance, the “mean normalized intensity (log format), Homo sapiens frizzled-related protein (FRZB), mRNA” value was 0.565, the “mean normalized intensity (log format), Homo sapiens gastrin-releasing peptide (GRP), mRNA” value was −2.741 and the “mean normalized intensity (log format), Homo sapiens glycophorin B (includes Ss blood group) (GYPB), mRNA” value was −0.9473. The “mean normalized intensity (log format), Homo sapiens glycophorin E (GYPE), mRNA” value was −2.016, the “mean normalized intensity (log format), Homo sapiens glycophorin Erik STA (GPErik) gene” value was −1.194 and the “mean normalized intensity (log format), Homo sapiens growth differentiation factor 3 (GDF3), mRNA” value was 1.673. For the same substance, the “mean normalized intensity (log format), Homo sapiens haptoglobin (HP), mRNA” value was −1.101, the “mean normalized intensity (log format), Homo sapiens haptoglobin-related protein (HPR), mRNA” value was −2.6068 and the “mean normalized intensity (log format), Homo sapiens homeobox protein goosecoid mRNA, complete cds” value was −4.42. For the same substance, the “mean normalized intensity (log format), Homo sapiens hypothetical protein FLJ10718 (FLJ10718), mRNA” value was 2.605, the “mean normalized intensity (log format), Homo sapiens hypothetical protein FLJ10970 (FLJ10970), mRNA” value was −0.432 and the “mean normalized intensity (log format), Homo sapiens hypothetical protein FLJ11316 (FLJ11316), mRNA” value was −0.9047. The “mean normalized intensity (log format), Homo sapiens hypothetical protein FLJ22252 similar to SRY-box containing gene 17 (FLJ22252), mRNA” value was 1.368, the “mean normalized intensity (log format), Homo sapiens hypothetical protein FLJ23403 (FLJ23403), mRNA” value was −1.485 and the “mean normalized intensity (log format), Homo sapiens lumican (LUM), mRNA” value was −4.057. For the same substance, the “mean normalized intensity (log format), Homo sapiens mRNA for GATA-6, complete cds” value was 2.219, the “mean normalized intensity (log format), Homo sapiens mRNA for KIAA1409 protein, partial cds” value was 0.3683 and the “mean normalized intensity (log format), Homo sapiens mRNA; cDNA DKFZp434D0818 (from clone DKFZp434D0818)” value was −2.634. For the same substance, the “mean normalized intensity (log format), Homo sapiens mRNA; cDNA DKFZp586J0624 (from clone DKFZp586J0624)” value was −0.8352, the “mean normalized intensity (log format), Homo sapiens matrix metalloproteinase 14 (membrane-inserted) (MMP14), mRNA” value was −0.7235 and the “mean normalized intensity (log format), Homo sapiens phorbolin-like protein MDS019 (MDS019), mRNA” value was −1.119. The “mean normalized intensity (log format), Homo sapiens presenilin stabilization factor b (PSF) mRNA” value was −0.8617, the “mean normalized intensity (log format), Homo sapiens reserved (KCNK12), mRNA” value was −0.4687 and the “mean normalized intensity (log format), Homo sapiens retinoid X receptor, gamma (RXRG), mRNA” value was −2.375. For the same substance, the “mean normalized intensity (log format), Homo sapiens sema domain, immunoglobulin domain (Ig), short basic domain, secreted, (semaphorin) 3E (SEMA3E), mRNA” value was −0.786, the “mean normalized intensity (log format), Homo sapiens sema domain, seven thrombospondin repeats, (semaphorin) 5A (SEMA5A), mRNA” value was −1.533 and the “mean normalized intensity (log format), Homo sapiens solute carrier family 16 (monocarboxylic acid transporters), member 3 (SLC16A3), mRNA” value was 0.7103. For the same substance, the “mean normalized intensity (log format), Homo sapiens solute carrier family 21 (prostaglandin transporter), member 2 (SLC21A2), mRNA” value was 0.7114, the “mean normalized intensity (log format), Homo sapiens type VI collagen alpha 2 chain precursor (COL6A2) mRNA” value was 1.7011 and the “mean normalized intensity (log format), Homo sapiens, alpha-1 (VI) collagen” value was −3.662. The “mean normalized intensity (log format), Homo sapiens, clone MGC: 4655, mRNA” value was 2.3772 and the “mean normalized intensity (log format), Human (clone 8B1) Br-cadherin mRNA” value was −2.179.

Reference: US11708562B2, “Differentiation of human embryonic stem cells” (Janssen Biotech, Inc., priority 2006, dated 2023)
